These results are taken from publication PMC9219824, “Antiplasmodial Cyclodecapeptides from Tyrothricin Share a Target with Chloroquine” (Antibiotics, 2022).

Structures are written as SMILES. Like-named read-outs stand apart in the source and are kept apart here. Square brackets hold non-standard residues; d marks the D form. Peptide text beside a SMILES is read from it. Orn = NCCC[C@H](N)C(=O)O

One data set relates to human erythrocytes. Briefly: Hemolytic activity. The format is cell-based. To be noted: 2% hematocrit, 1 h at 37 °C, ± SEM. As to the method: To determine the hemolytic activity of the peptides, the duplicate 96-well plates with samples added to 90 μL 2% hematocrit per well were incubated for one hour at 37 °C and centrifuged using a swing-out rotor at 200× g for 3 min. The supernatant was diluted 1:8 in analytical quality water in separate 96-well plates and after mixing, the absorbance of the suspension was determined at 405 nm.
(§1) The data obtained from spectrophotometric measurement of the plates following the lactate dehydrogenase (Malstat) assay were converted to percentage growth inhibition using the data analysis method described by Rautenbach et al.. The background was obtained from control wells in which the parasites were killed with 100 µM GS while total growth was from the wells that were not submitted to peptides. The background for the hemolysis evaluation was from wells in which the uninfected erythrocytes were lysed using 100 µM GS while growth control was from the wells with uninfected erythrocytes that received no peptides. The percentage COS-1 cell death (CellTiter Blue™ assay) was similarly calculated from absorbance values. All the dose–response assay data were evaluated using GraphPad Prism 4.03 (GraphPad Software, San Diego, CA, USA) followed by non-linear regression and sigmoidal curves were fitted (having variable slope and a constant difference of 100 between the top and bottom plateau). Following calculation of the 50% P. falciparum inhibitory concentration (IC50), 50% hemolytic concentration (HC50) and 50% lethal concentration (LC50) for COS-1 cells.

Another data set deals with CQI P. falciparum D10. Briefly: microbe, parasite or virus in culture. The format is cell-based, Plasmodium falciparum. Particulars: for IC50: 48 h, Malstat, ± SEM. The protocol:
(§2) The antimalarial assays were carried out according to the method of Nkhoma et al.. Once the cultures reached a parasitemia of 5–15%, they were synchronized four days prior to the day of the assay as described above which allowed the cultures to recover from the stress caused by the D-sorbitol. On the day of the assay, the parasitemia was determined following observation by light microscopy after Giemsa staining of a thin blood smear from the culture. The cultures at young trophozoite stage were diluted to 2% parasitemia and 2% hematocrit by addition of fresh RPMI medium and uninfected erythrocytes. This culture suspension was distributed in 96-well culture plates at 90 µL/well. The peptides and CQ diluted in culture medium lacking albumax II were added to the cultures in triplicate at 10 µL/well to give a total volume of 100 µL/well. Peptide solvent and medium (10 µL/well) was used as sterility control and in growth control and 10 μL 1.0 mM GS was used as positive control. Assays were carried out in at least three biological repeats each consisting of three technical repeats to ascertain reproducibility.
For the activity determination against parasites, plates were incubated at 37 °C for 48 h under an atmosphere of 3% CO2, 4% O2 and 93% N2. The culture suspension was frozen away at −20 °C until determination of the residual lactate dehydrogenase activity of the parasites by the Malstat assay, as adapted from Gomez et al..
(§3) For the Malstat assay, the plates were transferred to −80 °C for 1 h following overnight storage at −20 °C to ensure that all the suspensions in each well of the 96-well plate were frozen. The plates were then thawed at room temperature. The Malstat reagent consisted of 200 μL Triton X-100, 2 g L-lactic acid (substrate), 0.66 g Tris-HCl buffer and 0.011 g of 3-acetylpyridine adenine dinucleotide (APAD) (coenzyme for parasite lactate dehydrogenase) in 100 mL analytical quality water set to a pH of 9.0 [93]. The lactate dehydrogenase reaction was initiated by addition of a second solution, NBT/PES solution composed of 1.96 mM nitro blue tetrazolium (NBT) and 0.24 mM phenazine ethosulfate (PES) which was always protected from light. A 15 µL aliquot of the thawed and properly mixed suspension from the assay plates was added to 100 µL of the Malstat reagent, followed by addition of 25 µL of the NBT/PES solution. The reaction mixtures were then incubated at room temperature in the dark for 30 min followed by spectrophotometric measurement of the absorbance of the reduced APAD at 620 nm using a Model 680 Microplate reader from BioRad.
as §1

Data set [1] is described as follows: Toxicity to COS-1 cells, CellTiter Blue viability. The format is cell-based. Particulars: 24 h, resazurin (CellTiter Blue), read-out: Toxicity LC50, COS Cells. The protocol: COS-1 cells were cultured in DMEM containing 0.9 g/L glucose, 0.12% NaHCO3, 10% fetal calf serum and 1% penicillin–streptomycin at 37 °C and under an atmosphere of 5% CO2 [95]. Twenty hours before the assay, the cells were transferred to 96-well plates at a density of 1.5 × 10^4 cells/well. The peptides from the dilution series were added to each well and incubated for 24 h. The cell viability was measured by adding 20 μL/well resazurin reagent (CellTiter Blue™), followed by four hours incubation at room temperature in the dark and measurement of the absorbance at 560 nm and 600 nm in the BioRad microplate reader.
as §1

A further data set relates to CQS P. falciparum 3D7. The data set can be described thus: microbe, parasite or virus in culture. The format is cell-based, Plasmodium falciparum. As to the method:
as §2, with “Once the cultures reached a parasitemia of 5–15%, they were synchronized four days prior to the day of the assay as described above which allowed the cultures to recover from the stress caused by the D-sorbitol.” left out, “The peptides and CQ diluted in culture medium lacking albumax II were added to the cultures in triplicate at 10 µL/well to give a total volume of 100 µL/well.” left out
(§4) The culture suspension was frozen away at −20 °C until determination of the residual lactate dehydrogenase activity of the parasites by the Malstat assay, as adapted from Gomez et al..
as §3, with “The lactate dehydrogenase reaction was initiated by addition of a second solution, NBT/PES solution composed of 1.96 mM nitro blue tetrazolium (NBT) and 0.24 mM phenazine ethosulfate (PES) which was always protected from light.” left out
(§5) The data obtained from spectrophotometric measurement of the plates following the lactate dehydrogenase (Malstat) assay were converted to percentage growth inhibition using the data analysis method described by Rautenbach et al.. The background was obtained from control wells in which the parasites were killed with 100 µM GS while total growth was from the wells that were not submitted to peptides. […] The percentage COS-1 cell death (CellTiter Blue™ assay) was similarly calculated from absorbance values.

For the next data set, the system named is CQR P. falciparum Dd2. Briefly: microbe, parasite or virus in culture. In kind it is cell-based, Plasmodium falciparum. To be noted: for IC50: read-out: IC50, CQR P. falciparum Dd2; for Resistance Index IC50Dd2/IC503D7: first value of cell; for Resistance Index IC50Dd2/IC50D10: second value of cell. The protocol:
as §2, with “Once the cultures reached a parasitemia of 5–15%, they were synchronized four days prior to the day of the assay as described above which allowed the cultures to recover from the stress caused by the D-sorbitol.” left out, “The peptides and CQ diluted in culture medium lacking albumax II were added to the cultures in triplicate at 10 µL/well to give a total volume of 100 µL/well.” left out
as §4
as §3, with “The lactate dehydrogenase reaction was initiated by addition of a second solution, NBT/PES solution composed of 1.96 mM nitro blue tetrazolium (NBT) and 0.24 mM phenazine ethosulfate (PES) which was always protected from light.” left out
as §5

On to `CC(C)C[C@@H]1NC(=O)[C@H](CCCN)NC(=O)[C@H](C(C)C)NC(=O)[C@@H]2CCCN2C(=O)[C@@H](Cc2ccccc2)NC(=O)[C@H](CC(C)C)NC(=O)[C@H](CCCN)NC(=O)[C@H](C(C)C)NC(=O)[C@@H]2CCCN2C(=O)[C@@H](Cc2ccccc2)NC1=O` [GS, gramicidin S, reference compound] (cyclo(V[Orn]L[dF]PV[Orn]L[dF]P)), for which the “HC50, Erythrocytes” value in the data set with human erythrocytes is 6.2 ± 0.4 (9) μM. Also, the IC50 stood at 1400 ± 86 nM in the data set with CQI P. falciparum D10; 1450 ± 151 nM with CQS P. falciparum 3D7 (CQS 3D7, 48 h); 1860 ± 160 nM with CQR P. falciparum Dd2 (48 h, Malstat, ± SEM). Besides, in the data set with CQI P. falciparum D10 (second value of cell), the “Selectivity Index IC50D10/IC50 (COS cells)” value worked out at 6. Further, in data set [1], the CC50 came to 9 µM. In addition, the “Resistance Index IC50Dd2/IC503D7” value with CQR P. falciparum Dd2 is reported as 1.3; 1.3. In the data set on CQR P. falciparum Dd2, the “Resistance Index IC50Dd2/IC50D10” value is 1.3; 1.3.

As to `CCN(CC)CCCC(C)Nc1ccnc2cc(Cl)ccc12` (stereo not shown) [CQ, chloroquine], the IC50 in the data set on CQI P. falciparum D10 (Plasmodium falciparum, D10) is 40 ± 3 nM; in the data set on CQS P. falciparum 3D7 (Plasmodium falciparum, 3D7, 48 h, read-out: IC50, CQS P. falciparum 3D7) it was 17 ± 5 nM; in the data set with CQR P. falciparum Dd2 (Plasmodium falciparum, DD2, 48 h), 277 ± 18 nM. Moreover, the “Resistance Index IC50Dd2/IC503D7” value in the data set with CQR P. falciparum Dd2 is on record as 16. In the data set on CQR P. falciparum Dd2, the “Resistance Index IC50Dd2/IC50D10” value is recorded as 7.
